According to patent publication US6844465B2, “Method for preparing highly stable crystals of aspartame derivative” (Ajinomoto Co., Inc., priority 1998, dated 2005):
Each block holds one molecule with its values, some of them ahead of it.

Key:
[1] = on the weight basis, cited from earlier work
[2] = Stability test at 70° C. of crystals (remaining ratio of N-(3,3-dimethylbutyl)-APM); format: physicochemical
Protocol: Then, the obtained G-type crystals, D-type crystals and A-type crystals of N-(3,3-dimethylbutyl)-APM were tested at 70° C., concerning their stability. […] The relationship between the storage time and the remaining ratio of N-(3,3-dimethylbutyl)-APM in this test will be shown below in Table 1.

SMILES: COC(=O)[C@H](Cc1ccccc1)NC(=O)[C@H](CC(=O)O)NCCC(C)(C)C [N-(3,3-dimethylbutyl)-ATM, N-[N-(3,3-dimethylbutyl)-L-α-aspartyl]-L-phenylalanine methyl ester]
sweetening potency relative to aspartame ([1]; times that of aspartame): at least 50 times | sweetening potency relative to sucrose (table sugar) ([1]; times that of sucrose): about 10,000 times

Remaining Ratio (wt. %) ([2]; time elapsed 0 hrs, listed as A): 95 wt. % | Remaining Ratio (wt. %) ([2]; time elapsed 100 hrs, listed as A): 94 wt. % | Remaining Ratio (wt. %) ([2]; time elapsed 271 hrs): 96 wt. % | Remaining Ratio (wt. %) ([2]; time elapsed 271 hrs, listed as A): 96 wt. %
SMILES: COC(=O)[C@H](Cc1ccccc1)NC(=O)[C@H](CC(=O)O)NCCC(C)(C)C [A-type crystals, N-[N-(3,3-dimethylbutyl)-L-α-aspartyl]-L-phenylalanine methyl ester]

Remaining Ratio (wt. %) ([2]; time elapsed 0 hrs, listed as G): 96 wt. % | Remaining Ratio (wt. %) ([2]; time elapsed 100 hrs, listed as G): 48 wt. % | Remaining Ratio (wt. %) ([2]; time elapsed 271 hrs): 18 wt. % | Remaining Ratio (wt. %) ([2]; time elapsed 271 hrs, listed as G): 18 wt. %
SMILES: COC(=O)[C@H](Cc1ccccc1)NC(=O)[C@H](CC(=O)O)NCCC(C)(C)C [G-type crystals, N-[N-(3,3-dimethylbutyl)-L-α-aspartyl]-L-phenylalanine methyl ester]

Remaining Ratio (wt. %) ([2]; time elapsed 0 hrs, listed as D): 95 wt. % | Remaining Ratio (wt. %) ([2]; time elapsed 100 hrs, listed as D): 96 wt. % | Remaining Ratio (wt. %) ([2]; time elapsed 271 hrs): 77 wt. % | Remaining Ratio (wt. %) ([2]; time elapsed 271 hrs, listed as D): 77 wt. %
SMILES: COC(=O)[C@H](Cc1ccccc1)NC(=O)[C@H](CC(=O)O)NCCC(C)(C)C [D-type crystals, N-[N-(3,3-dimethylbutyl)-L-α-aspartyl]-L-phenylalanine methyl ester]
